This note sets out measurements from ChEMBL document CHEMBL2074316, “Multidrug resistance protein-mediated transport of chlorambucil and melphalan conjugated to glutathione” (Br J Cancer, 1998).

This data set has as its target Multidrug resistance-associated protein 1 (Homo sapiens, UniProt P33527). As to the kind of experiment: TP_TRANSPORTER: uptake in membrane vesicle from MRP1-expressing HeLa cells. Format: functional, cell membranes.

Chain of Multidrug resistance-associated protein 1 (P33527 whole entry): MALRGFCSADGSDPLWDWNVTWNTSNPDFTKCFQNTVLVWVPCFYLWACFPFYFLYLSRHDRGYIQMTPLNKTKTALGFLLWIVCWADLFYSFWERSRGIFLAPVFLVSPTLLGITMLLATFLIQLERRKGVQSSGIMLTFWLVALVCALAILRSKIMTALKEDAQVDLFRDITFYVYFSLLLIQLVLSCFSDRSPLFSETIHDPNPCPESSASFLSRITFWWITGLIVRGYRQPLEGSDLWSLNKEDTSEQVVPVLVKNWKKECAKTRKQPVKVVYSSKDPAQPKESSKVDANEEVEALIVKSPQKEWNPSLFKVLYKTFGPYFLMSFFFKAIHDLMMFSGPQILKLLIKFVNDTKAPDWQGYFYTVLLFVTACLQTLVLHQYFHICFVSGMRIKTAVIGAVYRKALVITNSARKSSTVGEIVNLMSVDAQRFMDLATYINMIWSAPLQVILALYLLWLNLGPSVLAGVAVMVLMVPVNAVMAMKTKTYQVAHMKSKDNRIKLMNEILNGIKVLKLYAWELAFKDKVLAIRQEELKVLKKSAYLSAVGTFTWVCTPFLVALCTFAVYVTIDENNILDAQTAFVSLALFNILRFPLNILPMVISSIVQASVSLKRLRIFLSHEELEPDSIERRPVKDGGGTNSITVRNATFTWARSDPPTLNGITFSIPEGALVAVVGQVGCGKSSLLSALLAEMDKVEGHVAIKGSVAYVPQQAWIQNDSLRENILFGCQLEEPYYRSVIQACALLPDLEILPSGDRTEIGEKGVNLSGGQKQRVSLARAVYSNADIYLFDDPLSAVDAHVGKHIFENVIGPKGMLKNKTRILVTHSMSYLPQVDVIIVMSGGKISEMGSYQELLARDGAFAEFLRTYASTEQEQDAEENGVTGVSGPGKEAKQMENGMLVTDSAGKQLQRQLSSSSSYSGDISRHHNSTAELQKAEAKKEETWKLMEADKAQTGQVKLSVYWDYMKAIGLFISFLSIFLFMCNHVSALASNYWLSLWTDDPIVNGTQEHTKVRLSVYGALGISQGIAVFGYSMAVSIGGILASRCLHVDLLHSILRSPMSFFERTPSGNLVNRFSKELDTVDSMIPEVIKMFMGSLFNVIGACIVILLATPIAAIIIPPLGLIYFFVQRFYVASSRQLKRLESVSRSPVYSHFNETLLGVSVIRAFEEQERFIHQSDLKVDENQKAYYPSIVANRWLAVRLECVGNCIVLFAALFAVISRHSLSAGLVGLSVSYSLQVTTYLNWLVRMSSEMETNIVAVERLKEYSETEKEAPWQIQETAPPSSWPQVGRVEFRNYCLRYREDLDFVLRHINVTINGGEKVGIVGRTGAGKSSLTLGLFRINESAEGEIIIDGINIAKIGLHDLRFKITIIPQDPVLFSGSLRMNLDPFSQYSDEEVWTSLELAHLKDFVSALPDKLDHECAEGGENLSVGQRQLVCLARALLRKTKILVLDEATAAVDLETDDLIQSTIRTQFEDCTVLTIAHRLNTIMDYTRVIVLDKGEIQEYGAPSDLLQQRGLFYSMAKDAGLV

Consider `C=C(NCC(=O)O)[C@H](CSCCN(CCSC[C@H](NC(=O)CC[C@H](N)C(=O)O)C(=O)NCC(=O)O)c1ccc(CCCC(=O)O)cc1)NC(=O)CC[C@H](N)C(=O)O` [BISGLUTATHIONYL CHLORAMBUCIL], for which the Activity entry was “substrate [+]”. As for `NC(CCC(=O)NC(CSCCN(CCO)c1ccc(CCCC(=O)O)cc1)C(=O)NCC(=O)O)C(=O)O` (configuration not stated) [MONOHYDROXY MONOGLUTATHIONYL CHLORAMBUCIL], the entry is “substrate [+]”.
